Row | melting point | SMILES
1 | 135 to 137 °C | O=C(COc1cccc(NC(=O)c2cc(-c3cccc(F)c3)ccc2F)c1)OCCO [Compound 1, 3-[(3′-Fluoro-4-fluorobiphenyl-3-carbonyl)amino]phenoxyacetic acid, ethylene glycol ester]
2 | 203 to 206 °C | NC(=O)COc1cccc(NC(=O)c2cc(-c3cccc(F)c3)ccc2F)c1 [Compound 3, 3-[(3′-Fluoro-4-fluorobiphenyl-3-carbonyl)amino]phenoxyacetamide]
3 | 103 to 104 °C | COC(=O)COc1cccc(NC(=O)c2cc(-c3cccc(F)c3)ccc2F)c1 [Compound 4, 3-[(3′-Fluoro-4-fluorobiphenyl-3-carbonyl)amino]phenoxyacetic acid, methyl ester]
4 | 154 to 155 °C | CC(C)OC(=O)/C=C/c1cccc(NC(=O)c2cc(-c3cccc(F)c3)ccc2F)c1 [Compound 5, 3-[(3′-Fluoro-4-fluorobiphenyl-3-carbonyl)amino]cinnamic acid, isopropyl ester]
5 | 144 to 145 °C | COC(=O)/C=C/c1cccc(NC(=O)c2cc(-c3cccc(F)c3)ccc2F)c1 [Compound 6, 3-[(3′-Fluoro-4-fluorobiphenyl-3-carbonyl)amino]cinnamic acid, methyl ester]
6 | 216 to 218 °C | NC(=O)/C=C/c1cccc(NC(=O)c2cc(-c3cccc(F)c3)ccc2F)c1 [Compound 7, 3-[(3′-Fluoro-4-fluorobiphenyl-3-carbonyl)amino]cinnamamide]

From patent publication US20100331410A1, “Biaryl Amides” (Asterand UK Limited, priority 2008, published 2010)
